# Several values for one entry are separate records, joined by “and”; a condition that tells them apart may be missing. Identical values can stand only once. Like-named read-outs stand apart in the source and are kept apart here.
# How the values were obtained:
# human AChE [1] = molecular target: T1, human AChE (Homo sapiens, UniProt P22303); assay: IC50 and enzyme inhibition kinetic analyses on AChE; assay type: biochemical
# T1 construct: purchased Sigma C1682
# Description: (§1) The screening of the in silico hits toward the BChE and AChE enzymatic activity was done by an adapted high-throughput assay version of Ellman′s colorimetric assay.[59],[60] The reagents, butyrylthiocholine iodide (BTC), acetylthiocholine iodide (ATC), and 5,5′-dithiobis(2-nitrobenzoic acid) (DTNB), were purchased from Sigma-Aldrich (St. Louis, MO). The modified assay details are as previously described.[6],[44] The main modification concerned the high-throughput adaptation of the assay for use in 384-well plates. Briefly, 25 μL/well of a 1:450 diluted solution of pooled human plasma and 1:768 diluted (3.5 ng/mL final concentration) purified recombinant human AChE protein (Sigma, Cat no. C1682) was used for measurement of the BChE and AChE activity, respectively. These enzymes’ concentrations were used since they are representative of the activity of these enzymes in the human cerebrospinal fluid (CSF).
# (§2) For BChE, the final BTC concentrations in the wells ranged from 5 mM to […], which were prepared as a 2-fold serial dilution. For AChE, the final ATC concentrations in the wells ranged from 0.5 mM to […], prepared as a 2-fold serial dilution series.
# (§3) In all enzyme inhibition kinetic assays, the concentrations of AChE and BChE were chosen so that the enzyme activities were representative of the activity of these enzymes in the human CSF, which is about 20 and 10 nmol/min/mL CSF for AChE and BChE, respectively.[49]
# (§4) For the enzyme inhibition kinetic analyses, the order of steps was as follows: (1) 25 μL/well of the compound or the vehicle control was added in quadruplicates, with respect to each compound concentration, in a 384-well plate. (2) Then, 25 μL of each substrate concentration was added to the wells in quadruples. (3) The reaction was then started by adding 25 μL of a master mix to all wells, containing the enzyme working solution and DTNB. The final concentration of the enzyme and DTNB as well as the buffer composition was the same as mentioned above for the screening assay. Then, the plate was immediately placed in the microplate spectrophotometer reader (Infinite M1000, Tecan) and the changes in the absorbance were continuously monitored at 2 min intervals for 15–20 min at 412 nm wavelength. The rate of the enzyme activity was extracted as the slope of the initial linear part of the kinetic reaction curves.
# The data were then transferred and processed using GraphPad Prism 9 analysis software.[15] The half-maximal inhibitory concentration (IC50) values were calculated by plotting the percentage enzyme activity versus the log concentrations of the compound. The inhibitory constant (Ki) values were determined from the enzyme inhibition kinetic analyses using the nonlinear regression function in the software. A statistical comparison of the ligand’s mode of activity was also done using GraphPad software between the competitive equation versus the mixed-competitive, noncompetitive, and uncompetitive equations.[61] A competitive mode of action means that the inhibitor reversibly binds to the substrate′s binding site. Thus, the inhibition of the enzyme is modifiable by a high concentration of the substrate via displacement. […] In the case of an uncompetitive mode of activity, the inhibitor has an affinity to the enzyme–substrate complex, but not the free enzyme. When the behavior of a ligand is not fully uniform, and the mixed-competitive fitting equation is statistically the best fitting option, the ligand is called a mixed-competitive one. This is determined through a general equation that includes the other three modes of actions. Through this equation, the software provides an additional parameter, called α, which determines the mechanism of action of the inhibitor. For instance, when α is equal to one, the inhibitor′s affinity for the free enzyme and the enzyme–substrate complex is equal, i.e., the inhibitor behaves mainly noncompetitively. […] When α is very large, the inhibitor behaves mainly as a competitive ligand. […]
# human plasma BChE [2] = molecular target: T2, human plasma BChE (Homo sapiens, UniProt P06276); assay: biochemical; details: for Ki: inhibition constant (Ki) against human BChE
# T2 construct: 25 μL/well of a 1:450 diluted solution of pooled human plasma; from tissue; host or cells: pooled human plasma, diluted 1:450, BChE not purified
# T2 sequence (P06276 29-602): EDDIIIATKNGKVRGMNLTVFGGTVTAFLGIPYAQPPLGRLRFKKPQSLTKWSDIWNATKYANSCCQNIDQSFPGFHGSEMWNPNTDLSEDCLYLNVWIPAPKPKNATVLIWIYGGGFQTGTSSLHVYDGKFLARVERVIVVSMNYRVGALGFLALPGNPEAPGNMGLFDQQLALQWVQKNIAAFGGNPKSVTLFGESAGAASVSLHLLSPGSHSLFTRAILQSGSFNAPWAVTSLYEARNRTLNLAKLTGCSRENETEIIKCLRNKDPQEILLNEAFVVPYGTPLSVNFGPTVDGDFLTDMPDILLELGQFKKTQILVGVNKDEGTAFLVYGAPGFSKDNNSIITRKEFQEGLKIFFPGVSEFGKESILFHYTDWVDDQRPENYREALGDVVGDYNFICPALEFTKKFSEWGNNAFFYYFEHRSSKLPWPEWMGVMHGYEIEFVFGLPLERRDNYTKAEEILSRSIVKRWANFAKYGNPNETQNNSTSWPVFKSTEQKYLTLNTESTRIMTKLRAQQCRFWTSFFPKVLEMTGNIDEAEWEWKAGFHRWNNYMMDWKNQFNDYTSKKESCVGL
# Description: as §1, §2, §3, §4
# The data were then transferred and processed using GraphPad Prism 9 analysis software.[15] The half-maximal inhibitory concentration (IC50) values were calculated by plotting the percentage enzyme activity versus the log concentrations of the compound. The inhibitory constant (Ki) values were determined from the enzyme inhibition kinetic analyses using the nonlinear regression function in the software. A statistical comparison of the ligand’s mode of activity was also done using GraphPad software between the competitive equation versus the mixed-competitive, noncompetitive, and uncompetitive equations.[61] A competitive mode of action means that the inhibitor reversibly binds to the substrate′s binding site. Thus, the inhibition of the enzyme is modifiable by a high concentration of the substrate via displacement. […] When the behavior of a ligand is not fully uniform, and the mixed-competitive fitting equation is statistically the best fitting option, the ligand is called a mixed-competitive one. This is determined through a general equation that includes the other three modes of actions. Through this equation, the software provides an additional parameter, called α, which determines the mechanism of action of the inhibitor. For instance, when α is equal to one, the inhibitor′s affinity for the free enzyme and the enzyme–substrate complex is equal, i.e., the inhibitor behaves mainly noncompetitively. […] When α is very large, the inhibitor behaves mainly as a competitive ligand. A very small α (but not <0) is indicative of an uncompetitive mode of action.[61]
# human recombinant ChAT = assay: In vitro single-concentration screening against choline acetyltransferase; assay type: biochemical; details: single concentration 100 μM
# Protocol: (§5) All of the drugs were tested at a final concentration of 100 μM.
# [3] = Plasma / in vivo drug concentrations in humans (literature pharmacokinetics); details: using a molecular weight of 325.39
# human AChE [4] = molecular target: T1, human AChE; assay: In vitro single-concentration screening, AChE activity (adapted Ellman assay); assay type: biochemical; details: read-out: inhibition of AChE activity
# Protocol: as §5, §1
# (§6) To the control wells, the vehicle solution was added to get the reference enzyme activity (100%). (2) Then, 25 μL of a working solution of BChE or AChE was added to all wells. The plate was then incubated for 10–30 min at room temperature. (3) The reaction was then started by adding 25 μL of a cocktail mix prepared in Na/K phosphate buffer to all wells, containing DTNB (final concentration 0.4 mM) and BTC (final concentration 1 mM) or ATC (final concentration 0.5 mM). The changes in the absorbance were monitored at 412 nm wavelength for 15–20 min at 1 min intervals, using a microplate spectrophotometer reader (Infinite M1000, Tecan). The rate of the enzyme activity was determined from the slope of the linear part of the kinetic reaction curves. In all steps, the working solution concentrations were 3 times of the final concentrations of each component in the final volume of 75 μL in each well. The final screening concentration of the compounds was 100 μM. […]
# human plasma BChE [5] = molecular target: T2, human plasma BChE; assay: biochemical; assay type: biochemical; details: single concentration 100 μM
# Protocol: as §5, §1, §6
# BChE = system: BChE; design: method as in PMID 17196712, PMID 16868793, PMID 20205672, PMID 19199870; details: at therapeutic concentrations; cited from earlier work
# [6] = cited from earlier work
# [7] = molecular target: norepinephrine uptake carrier; details: read-out: Ki, norepinephrine uptake carrier; radioligand binding; cited from earlier work
# human BChE = details: cited from earlier work
# [8] = cited from earlier work; remark: listed apart in the source
# [9] = system: muscarinic, histaminergic, α1-adrenergic, serotonergic, dopaminergic, and opioid receptors; details: radioligand binding; cited from earlier work
# [10] = high substrate range, up to 5 mM
# [11] = micromolar substrate range (up to 0.5 mM)
# [12] = human, multiple doses of 30 mg twice daily
# T1 sequence (P22303 32-614): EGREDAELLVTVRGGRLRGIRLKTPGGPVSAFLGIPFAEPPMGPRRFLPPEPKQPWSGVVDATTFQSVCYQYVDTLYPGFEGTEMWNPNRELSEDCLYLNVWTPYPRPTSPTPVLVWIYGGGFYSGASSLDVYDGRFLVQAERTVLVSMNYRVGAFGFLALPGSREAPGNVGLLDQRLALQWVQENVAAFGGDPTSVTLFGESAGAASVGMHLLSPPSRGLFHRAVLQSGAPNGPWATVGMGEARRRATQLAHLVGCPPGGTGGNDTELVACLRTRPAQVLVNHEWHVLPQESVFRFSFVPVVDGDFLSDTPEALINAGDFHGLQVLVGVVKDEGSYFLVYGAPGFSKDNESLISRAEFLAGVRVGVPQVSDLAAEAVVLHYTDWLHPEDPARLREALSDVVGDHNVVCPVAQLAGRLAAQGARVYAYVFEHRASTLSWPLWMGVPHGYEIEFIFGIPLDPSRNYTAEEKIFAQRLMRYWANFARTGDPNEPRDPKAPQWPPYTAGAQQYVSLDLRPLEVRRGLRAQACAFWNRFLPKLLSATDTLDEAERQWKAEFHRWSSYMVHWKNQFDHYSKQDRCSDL
smiles,measurement,setting,value
CN(C)CCCC1(c2ccc(F)cc2)OCc2cc(C#N)ccc21 (stereo not drawn) [citalopram],Ki,human AChE [1],58800 nM
same,mode of inhibition of AChE,human AChE [1]; enzyme inhibition kinetics,noncompetitive
same,BChE potency ratio Ki Escit / Ki Cit,human plasma BChE [2]; 203/42,4.8
same,mode of inhibition of BChE,human plasma BChE [2]; [10],mixed-competitive
same,Ki,human plasma BChE [2]; [10],42000 nM
same,effect on the activity of human ChAT,human recombinant ChAT,neither duloxetine nor citalopram/escitalopram affected the activity
same,"molar concentration (maximum, from ng/mL)",[3],at most 0.86 μM
same,inhibition at 100 µM,human AChE [4],~60%
same,inhibition at 100 µM,human plasma BChE [5],~55%
COc1cc2c(cc1OC)C(=O)C(CC1CCN(Cc3ccccc3)CC1)C2 (stereo not drawn) [donepezil],inhibitory effect on BChE,BChE,completely devoid of any inhibitory effect
CNCC[C@H](Oc1cccc2ccccc12)c1cccs1 [duloxetine],mode of inhibition of AChE,human AChE [1]; enzyme inhibition kinetics,mixed-competitive
same,Ki,"human AChE [1]; inhibition constant (Ki) against human AChE, nonlinear regression, enzyme inhibition kinetics",65500 nM and ~56500 nM
same,IC50,human plasma BChE [2],9700 nM
same,times as potent as physostigmine in inhibiting BChE,human plasma BChE [2]; Ki 210 nM vs […] nM,4 times
same,mode of inhibition of BChE,human plasma BChE [2]; [10],competitive
same,Ki,human plasma BChE [2]; [10],~351 nM and 350 nM
same,Ki,human plasma BChE [2]; [11],210 nM
same,mode of inhibition of BChE,human plasma BChE [2]; [11],competitive
same,effect on the activity of human ChAT,human recombinant ChAT,neither duloxetine nor citalopram/escitalopram affected the activity
same,effect on cognition in the elderly,[6]; 8-week double-blind placebo-controlled trial,improved cognition
same,cognitive effect in patients with major depressive disorders,[6]; 12-week study,significant cognitive improvements across several domains
same,risk of developing dementia compared to citalopram-treated patients,"[6]; pharmacoepidemiologic study, patients with depression",significantly lower risk of developing dementia
same,Ki,[7],2.1 nM
same,inhibition at 100 µM,human AChE [4],~35%
same,inhibition of human BChE,human BChE; 10 μM,over 70%
same,IC50,"human BChE; read-out: IC50 against human BChE, substrate and its concentration not reported",1200 nM
same,maximum steady-state plasma concentration,[8]; [12],142 nM
same,minimum steady-state plasma concentration,[8]; [12],84 nM
same,normal in vivo concentration range in human patients,[8]; normal dosages,100 to 400 nM
same,Cmax,"[8]; read-out: plasma Cmax, human, single dose of 30–90 mg",70 to 180 nM
same,"affinity for muscarinic, histaminergic, α1-adrenergic, serotonergic, dopaminergic, and opioid receptors",[9],lacks the pharmacologically relevant affinity
same,inhibition of plasma BChE activity,human plasma BChE [5],fully inhibited
CN(C)CCC[C@@]1(c2ccc(F)cc2)OCc2cc(C#N)ccc21 [escitalopram],Ki,human AChE [1],32800 nM
same,AChE potency ratio Ki Cit / Ki Escit,human AChE [1]; 59/33,1.8
same,mode of inhibition of AChE,human AChE [1]; enzyme inhibition kinetics,mixed-competitive
same,mode of inhibition of BChE,human plasma BChE [2]; [10],mixed-competitive
same,Ki,human plasma BChE [2]; [10],203000 nM
same,effect on the activity of human ChAT,human recombinant ChAT,neither duloxetine nor citalopram/escitalopram affected the activity
same,"molar concentration (maximum, from ng/mL)",[3],at most 0.86 μM
same,inhibition at 100 µM,human AChE [4],~60%
same,inhibition at 100 µM,human plasma BChE [5],~10%
CCN(CC)C(C)CN1c2ccccc2Sc2ccccc21 (stereo not drawn) [ethopropazine],mode of inhibition of BChE,human plasma BChE [2]; [10],mixed-competitive
same,Ki,human plasma BChE [2]; [10],150 nM
same,Ki,human plasma BChE [2]; low substrate concentrations (up to 0.5 mM),154 nM
same,Ki,human plasma BChE [2]; [11],~155 nM
same,mode of inhibition of BChE,human plasma BChE [2]; [11],Mixed-competitive inhibitor
COc1ccc2c3c1O[C@H]1C[C@@H](O)C=C[C@@]31CCN(C)C2 [galantamine],inhibitory effect on BChE,BChE,completely devoid of any inhibitory effect
CNC(=O)Oc1ccc2c(c1)[C@]1(C)CCN(C)[C@@H]1N2C [physostigmine],mode of inhibition of BChE,human plasma BChE [2]; [10],Competitive inhibitor

# Reference: article PMC11375813 (ACS Omega, 2024)
